Measured values from patent publication US20260376283A1, “A METHOD IMPLEMENTING MORPHOLOGICAL CHANGES OF EXTRACELLULAR ORGANELLE VESICLES SO AS TO EXAMINE THE TRANSPORTING ACTIVITY OF MEMBRANE TRANSPORT PROTEINS AND OTHER RELATED METHODS” (PARIS SCIENCES ET LETTRES, priority 2023, published 2026).
“Also recorded” adds a separate entry of the source. Read-outs that look alike come from different tables or passages of the source.

Assays:
SERCA pump [1] = details: role: inhibitor; cited from earlier work
SERCA pump [2] = test: Screening of candidate compounds modulating SERCA activity by ER vesicle re-swelling (Example 4); type: biochemical; details: role: inhibitor; for re-swelling process in presence of inhibitor: thapsigargin 10 μM in DMSO, 10 min, CaCl2 60 mOsm/L, ATP 1 mM / 100 μM, compared to vesicle not incubated
Experimental: Once the ER extracellular organelle vesicles are extracted, thapsigargin (10 μM) in DMSO, is added to the medium. […] After 10 minutes of incubation with thapsigargin, and once the acquisition is started, the extracellular organelle vesicle, held by the micropipette is passed through an aqueous solution containing CaCl2 (60 mOsm/L) and ATP (1 mM).
FIG. 6 A) represents an ER extracellular organelle vesicle maintained thanks to a micropipette into a HKM diluted buffer (20 mOsm/L). This extracellular organelle vesicle has been isolated thanks to an ER resident protein, over-expressed by COS7 cells, before organelle vesicles extraction. This extracellular organelle vesicle was incubated with thapsigargin at 10 μM during 10 min.
At t=0s, CaCl2 (60 mOsm/L) and ATP (100 μM) were added. Dotted line circles all correspond to the size of the extracellular organelle vesicle before the beginning of the process.

[3] = tested on: ion pump SERCA localized on Endoplasmic Reticulum vesicles; test: Ca2+ pump transporting activity by morphological change (deflation/re-swelling) of ER extracellular organelle vesicles (Example 1); type: biochemical; details: role: substrate
Experimental: An initial HKM buffer was prepared with 50 mM Hepes (known as 2-[4-(2-hydroxyethyl)piperazin-1-yl]ethanesulfonic acid), 120 mM potassium acetate, and 1 mM MgCl2 (in Milli-Q water) at pH 7.4. Said initial HKM buffer has an osmolarity of 280±15 mOsm/L.
Then, a membrane tension is applied on cells so as to produce extracellular organelle vesicles without lysing them. At that step, the extracellular organelle vesicles are released (or produced) thanks to the lysis and the removal of the plasma membrane. The membrane tension is carried out by micro-manipulation of the cells under confocal microscope thanks to a micropipette aspiration technique. Micropipette radius is around 1 μm. Thanks to a slight aspiration, a bilayer tongue of the plasma membrane was sucked into the micropipette. The aspiration is then increased at an approximate rate of 10 mbar/min, causing a proportional increase in the bilayer surface tension. At a certain applied tension (e.g. surface tension<0.75 mN/m), the plasma membrane ruptured thanks to a pore opening in the plasma membrane and the extracellular organelle vesicles are released (or extracted).
After extraction, one or more extracellular organelle vesicles are isolated using a micropipette. The micropipettes are used to hold a vesicle during the following methods of the present invention. Before the addition of molecules (ions, sugars or drug molecules), an acquisition is launched to observe the initial size of the vesicle.
Once the acquisition is started, the extracellular organelle vesicle, held by the micropipette is passed through an aqueous solution containing CaCl2 (60 mOsm/L) and ATP (100 μM). Contacting calcium ions with said extracellular organelle vesicle increases the osmolarity of the extravesicular aqueous medium. […] This innovative process allows to examine the transporting activity of the ion pump SERCA localized on Endoplasmic Reticulum vesicles.
FIG. 1 A) represents an extracellular organelle vesicle of endoplasmic reticulum (ER) which is maintained thanks to a micropipette into a HKM diluted buffer (20 mOsm/L) as an extravesicular aqueous medium. This extracellular organelle vesicle has been isolated thanks to an ER resident protein (KDEL), over-expressed by COS7 cells, before organelle vesicles extraction.
At t=0s, CaCl2 (60 mOsm/L) and ATP (100 μM) were added. At t=20s, the ER extracellular organelle vesicle is deflated: it reached its minimum volume (Vi1) and its associated maximum fluorescence signal (Fl1).
Once the acquisition is started, the ER extracellular organelle vesicle, held by the micropipette is passed through an aqueous solution containing sucrose (60 mOsm). […] Sucrose can thus be used as a control or reference in the method of the present invention.

[4] = tested on: giant organelles from the ER; test: Giant organelle formation after pre-treatment of cells (ER); type: cell-based; details: pre-treatment between 1 and 90 min before swelling
From the text: (§1) According to a particular embodiment of the first process, prior to the generation of giant extracellular organelle vesicles, cells may be treated with molecules to prevent protein degradation, modulate biochemical reactions on organelles, etc., so that giant extracellular organelle vesicles can bear specific biochemical properties. The metabolic conditions and the architecture of cells and its organelles can thus be further modified before step v), by chemicals and/or by modifying the expression level of proteins impacting the architecture of cells and/or their organelles and/or the metabolic conditions. […] These manipulations enable controlling the size of the recovered giant extracellular organelle vesicles and their contact: tuning the surface-to-volume ratio, prior to the osmotic swelling, impacting the future recovered giant organelle size, with adapted osmotic swelling. […]

[5] = tested on: giant extracellular organelles vesicles coming from autophagosomes; test: Giant organelle formation after pre-treatment of cells (autophagosomes); type: cell-based; details: added before swelling and extraction
From the text: as §1

[6] = tested on: ion channel TMEM175 localized on lysosomes or endolysosomes vesicles; details: cited from earlier work
[7] = tested on: ion channel TMEM175 localized on lysosomes or endolysosomes vesicles; test: K+ ion channel TMEM175 transporting activity by endolysosome vesicle morphological change (Example 8); type: biochemical; details: role: substrate, KCl 100 mM inside, 1 mM outside with 200 mM sucrose
Experimental: Before starting acquisition, extracellular endolysosome vesicles are charged with K^+ ions thanks to a bath sonicator and an extracellular solution (210 mOsm/L) containing 100 mM of KCl and 10 mM of Hepes, pH 7.2. Then, extracellular endolysosome vesicles are seeded on a glass plate for observation. Before starting acquisition, extravesicular aqueous solution is removed to be changed when starting acquisition.
Once the acquisition is started, the extracellular organelle vesicle, held by the micropipette is passed through an extra-vesicular aqueous solution (200 mOsm/L) containing 1 mM of KCl and 200 mM of sucrose. Contacting very small amount of potassium ions with said extracellular organelle vesicle generates a concentration gradient of K^+ between the inside and the outside of the vesicles. […] This innovative process allows to examine the transporting activity of the ion channel TMEM175 localized on lysosomes or endolysosomes vesicles in absence and/or in presence of an antagonist (4-AP) and/or agonist (DCPIB).

[8] = tested on: giant extracellular organelles vesicles from endosome, lysosome, autolysosome and multivesicular body; test: Giant organelle formation after pre-treatment of cells (endosome, lysosome, autolysosome, multivesicular body); type: cell-based; details: added between 12 to 24 hours before swelling
From the text: as §1

## C/C=C(/C)C(=O)O[C@H]1C(C)=C2[C@H]([C@@H]1OC(=O)CCCCCCC)[C@@](C)(OC(C)=O)C[C@H](OC(=O)CCC)[C@@]1(O)[C@H]2OC(=O)[C@@]1(C)O [thapsigargin]
SERCA pump [1]
  known activity on the SERCA pump: known inhibitor of the SERCA pump
SERCA pump [2]; reference ratio obtained without thapsigargin
  Vf/Vi1 and Vf/Vi versus reference ratio: Vf/Vi1<Vf,ref/Vi1,ref, and Vf/Vi<Vf,ref/Vi,ref
SERCA pump [2]
  re-swelling process in presence of inhibitor: the reswelling process is decreased or not present
SERCA pump [2]; listed as thaspigargin
  re-swelling process in presence of inhibitor: the re-swelling process is almost off
SERCA pump [2]; thapsigargin 10 μM, FIGS. 1 and 6
  effect on the transporting activity of SERCA with respect to Ca^2+: inhibitory effect

## OC[C@H]1O[C@@](CO)(O[C@H]2O[C@H](CO)[C@@H](O)[C@H](O)[C@H]2O)[C@@H](O)[C@@H]1O [sucrose]
[3]; 60 mOsm/L, following minutes, CaCl2 with ATP (100 μM), sucrose as control
  re-swelling process of vesicle: no re-swelling is observed; also recorded: no re-swelling process is visible
[3]; CaCl2 60 mOsm/L with ATP (100 μM), or sucrose 60 mOsm without ATP stated, vesicle internal 20 mOsm/L, COS7 ER vesicle
  deflation of vesicle on contacting: deflates in a few seconds
[3]; sucrose 60 mOsm, FIG. 2
  transport inside the ER extracellular organelle vesicle: not transported inside the ER extracellular organelle vesicle

## COC(=O)Nc1nc2ccc(C(=O)c3cccs3)cc2[nH]1 [nocodazole]
[4]
  effect on giant organelle formation from the ER: allows the formation of bigger giant organelles from the ER

## CO/C1=C\C(C)=C\[C@@H](C)[C@@H](O)[C@@H](C)C/C(C)=C/C=C/[C@H](OC)[C@@H]([C@@H](C)[C@@H](O)[C@H](C)C2(O)C[C@@H](O)[C@H](C)[C@@H](C(C)C)O2)OC1=O (stereo partly shown) [bafylomicin]
[5]
  effect on giant extracellular organelle vesicles from autophagosomes: allows to obtain more giant extracellular organelles vesicles coming from autophagosomes

## CCCCC1(C2CCCC2)Cc2cc(OCCCC(=O)O)c(Cl)c(Cl)c2C1=O (stereo not shown) [DCPIB]
[6]; role: activator
  mode of action on TMEM175: agonist

## [Cl-].[K+] [KCl]
[7]
  deflation of endolysosome vesicle: the vesicle deflates in a few seconds
[7]; following minutes
  re-swelling process of endolysosome vesicle: a re-swelling process is not observed

## CO[C@H]1C[C@@H]2CC[C@@H](C)[C@@](O)(O2)C(=O)C(=O)N2CCCC[C@H]2C(=O)O[C@H]([C@H](C)C[C@@H]2CC[C@@H](O)[C@H](OC)C2)CC(=O)[C@H](C)/C=C(\C)[C@@H](O)[C@@H](OC)C(=O)[C@H](C)C[C@H](C)/C=C/C=C/C=C/1C [rapamycin]
[8]
  effect on giant extracellular organelle vesicle formation: allows to form bigger giant extracellular organelles vesicles

## C/C1=C/C(=O)O[C@@H]2C[C@@H](CC[C@H](C)/C=C\C=C\CC1)O[C@@](O)([C@@H]1CSC(=O)N1)C2 [Latrunculin A]
[4]
  effect on giant organelle formation from the ER: allows the formation of bigger giant organelles from the ER

## Nc1ccncc1 [4-AP]
[6]; role: inhibitor
  mode of action on TMEM175: antagonist
